Series [1] is described as follows: Solubility at pH 6.5. Format: physicochemical. To be noted: buffer.
Series [2] is described as follows: Lipophilicity, log D at pH 7.3. The format is physicochemical. To be noted: buffer.
In series [3] the test system is HCT-116. The series can be described thus: Antitumor activity against human HCT116 cells xenografted in athymic mouse assessed as tumor growth inhibition at 200 mg/kg, po qd for 21 days measured on day 21. As to conditions: HCT-116, 504 h, read-out: TGI. The format is functional. In general terms: Xenograft models place foreign cells or tissue in a host animal.
Series [4] relates to Mus musculus. The series can be described thus: Toxicity in athymic xenografted with human HCT116 cells mouse assessed as maximum body weight loss at 200 mg/kg, po qd for 21 days measured on day 7. Format: organism-based, HCT-116. The arrangement: dose 200 mg/kg, route oral. As to conditions: in vivo, 504 h.
The test system of series [5] is HCT-116. The series can be described thus: Antitumor activity against human HCT116 cells xenografted in athymic mouse assessed as tumor growth inhibition at 100 mg/kg, po qd for 21 days measured on day 21. Format: functional. To be noted: HCT-116, 504 h, read-out: TGI.
Series [6] concerns Mus musculus. Kind of series: Toxicity in athymic mouse xenografted with human HCT116 cells assessed as maximum body weight loss at 100 mg/kg, po qd for 21 days. The format is organism-based, HCT-116. Details: dose 100 mg/kg, route oral. To be noted: in vivo, 504 h.
The nature of series [7]: Oral bioavailability in mouse at 50 mg/kg. The format is ADME, organism-based. As to conditions: in vivo.
A short description of series [8]: Cmax in mouse at 50 mg/kg, po. The arrangement: dose 50 mg/kg, route oral. As to conditions: in vivo. Format: ADME, organism-based.
The target of series [9] is Histone deacetylase 3 (Homo sapiens, UniProt O15379). The series can be described thus: Inhibition of recombinant HDAC3 by fluorimetric assay.
Chain of Histone deacetylase 3 (O15379 whole entry): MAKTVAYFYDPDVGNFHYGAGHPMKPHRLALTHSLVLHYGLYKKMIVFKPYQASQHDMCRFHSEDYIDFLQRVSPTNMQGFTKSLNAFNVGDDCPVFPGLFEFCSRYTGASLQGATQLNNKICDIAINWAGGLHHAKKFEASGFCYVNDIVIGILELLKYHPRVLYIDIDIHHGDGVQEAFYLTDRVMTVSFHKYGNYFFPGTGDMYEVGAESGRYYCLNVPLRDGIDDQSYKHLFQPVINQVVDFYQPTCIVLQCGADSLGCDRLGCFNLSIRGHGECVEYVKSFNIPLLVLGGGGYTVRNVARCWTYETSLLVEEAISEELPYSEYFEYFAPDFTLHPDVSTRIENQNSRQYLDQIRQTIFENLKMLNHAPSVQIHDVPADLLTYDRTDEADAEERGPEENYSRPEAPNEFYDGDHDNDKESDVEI
Series [10] addresses Histone deacetylase 4 (Homo sapiens, UniProt P56524). The series can be described thus: Inhibition of recombinant HDAC4 by fluorimetric assay.
The target in series [11] is Histone deacetylase 5 (Homo sapiens, UniProt Q9UQL6). Kind of series: Inhibition of recombinant HDAC5 by fluorimetric assay.
Chain of Histone deacetylase 5 (Q9UQL6 whole entry): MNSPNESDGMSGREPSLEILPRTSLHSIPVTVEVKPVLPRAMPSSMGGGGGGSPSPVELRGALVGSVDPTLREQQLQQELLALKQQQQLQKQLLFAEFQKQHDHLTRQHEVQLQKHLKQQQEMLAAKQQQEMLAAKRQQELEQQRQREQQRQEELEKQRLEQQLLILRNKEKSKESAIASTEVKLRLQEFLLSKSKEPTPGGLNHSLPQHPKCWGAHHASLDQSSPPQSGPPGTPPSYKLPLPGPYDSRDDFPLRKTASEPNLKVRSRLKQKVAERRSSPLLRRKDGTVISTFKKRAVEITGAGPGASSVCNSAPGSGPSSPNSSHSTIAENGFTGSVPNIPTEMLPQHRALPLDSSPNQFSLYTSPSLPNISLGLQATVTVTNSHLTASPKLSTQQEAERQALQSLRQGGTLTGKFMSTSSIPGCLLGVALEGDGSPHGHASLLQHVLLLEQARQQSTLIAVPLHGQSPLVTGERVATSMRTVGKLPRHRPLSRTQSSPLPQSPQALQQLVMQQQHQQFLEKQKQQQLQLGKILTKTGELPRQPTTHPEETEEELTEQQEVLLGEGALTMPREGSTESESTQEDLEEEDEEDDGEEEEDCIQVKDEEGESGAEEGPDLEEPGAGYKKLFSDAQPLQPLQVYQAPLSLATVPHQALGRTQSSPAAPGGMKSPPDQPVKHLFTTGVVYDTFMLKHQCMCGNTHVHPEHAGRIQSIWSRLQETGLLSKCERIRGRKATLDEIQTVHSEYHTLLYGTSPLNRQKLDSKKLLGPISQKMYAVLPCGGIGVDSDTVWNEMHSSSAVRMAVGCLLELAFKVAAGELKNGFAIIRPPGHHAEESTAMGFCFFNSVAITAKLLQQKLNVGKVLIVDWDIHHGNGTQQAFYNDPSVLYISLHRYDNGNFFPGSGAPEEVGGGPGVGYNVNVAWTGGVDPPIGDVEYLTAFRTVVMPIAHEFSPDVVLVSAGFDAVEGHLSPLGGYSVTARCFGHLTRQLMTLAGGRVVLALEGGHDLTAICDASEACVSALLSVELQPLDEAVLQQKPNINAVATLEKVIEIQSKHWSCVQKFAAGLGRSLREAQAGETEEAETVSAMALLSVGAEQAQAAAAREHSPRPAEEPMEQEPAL
The target of series [12] is T1, Protein deacetylase HDAC6 (Homo sapiens, UniProt Q9UBN7).
T1 sequence (Q9UBN7 whole entry): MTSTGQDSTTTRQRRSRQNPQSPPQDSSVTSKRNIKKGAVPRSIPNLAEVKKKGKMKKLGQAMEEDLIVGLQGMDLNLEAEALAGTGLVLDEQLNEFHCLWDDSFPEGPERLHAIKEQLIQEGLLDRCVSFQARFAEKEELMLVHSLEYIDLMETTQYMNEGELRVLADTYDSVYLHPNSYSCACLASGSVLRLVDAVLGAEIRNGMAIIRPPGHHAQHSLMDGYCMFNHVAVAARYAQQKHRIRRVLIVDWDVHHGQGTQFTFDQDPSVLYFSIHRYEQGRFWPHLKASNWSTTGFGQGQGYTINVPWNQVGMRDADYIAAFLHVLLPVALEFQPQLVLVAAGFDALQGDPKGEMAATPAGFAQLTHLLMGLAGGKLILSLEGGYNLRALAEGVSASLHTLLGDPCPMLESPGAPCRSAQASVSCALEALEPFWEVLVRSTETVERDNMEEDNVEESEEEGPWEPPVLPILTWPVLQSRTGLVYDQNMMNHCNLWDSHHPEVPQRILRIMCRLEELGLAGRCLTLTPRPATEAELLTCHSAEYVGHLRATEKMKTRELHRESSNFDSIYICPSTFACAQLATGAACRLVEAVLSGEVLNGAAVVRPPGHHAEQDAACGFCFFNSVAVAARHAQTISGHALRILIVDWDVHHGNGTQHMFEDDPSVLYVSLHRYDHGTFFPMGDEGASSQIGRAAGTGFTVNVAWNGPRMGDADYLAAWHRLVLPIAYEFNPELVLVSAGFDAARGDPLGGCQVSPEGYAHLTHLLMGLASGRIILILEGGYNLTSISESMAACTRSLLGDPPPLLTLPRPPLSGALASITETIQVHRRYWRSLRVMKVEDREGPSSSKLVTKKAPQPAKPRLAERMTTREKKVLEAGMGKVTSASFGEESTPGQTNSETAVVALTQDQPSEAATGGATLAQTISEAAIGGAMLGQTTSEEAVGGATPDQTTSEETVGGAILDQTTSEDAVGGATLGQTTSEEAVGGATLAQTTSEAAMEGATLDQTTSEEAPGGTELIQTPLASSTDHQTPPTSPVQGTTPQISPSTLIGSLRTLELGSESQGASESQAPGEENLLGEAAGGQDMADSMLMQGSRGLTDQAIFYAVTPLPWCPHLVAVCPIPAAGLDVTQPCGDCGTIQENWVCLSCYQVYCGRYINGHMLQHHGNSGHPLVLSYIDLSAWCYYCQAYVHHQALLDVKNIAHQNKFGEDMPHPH
The series can be described thus: Inhibition of recombinant HDAC6 by fluorimetric assay.

Series [13] deals with T2, Histone deacetylase 8 (Homo sapiens, UniProt Q9BY41).
T2 sequence (Q9BY41 whole entry): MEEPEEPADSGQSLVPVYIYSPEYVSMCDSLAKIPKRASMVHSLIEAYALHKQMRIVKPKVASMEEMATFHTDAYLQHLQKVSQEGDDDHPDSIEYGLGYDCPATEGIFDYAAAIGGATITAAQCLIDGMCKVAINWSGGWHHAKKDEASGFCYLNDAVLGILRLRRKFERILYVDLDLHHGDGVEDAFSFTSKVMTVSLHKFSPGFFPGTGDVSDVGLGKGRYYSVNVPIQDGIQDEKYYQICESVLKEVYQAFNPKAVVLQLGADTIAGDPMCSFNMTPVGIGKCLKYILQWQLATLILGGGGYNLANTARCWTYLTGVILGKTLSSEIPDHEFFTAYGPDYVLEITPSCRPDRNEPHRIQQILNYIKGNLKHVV
Kind of series: Inhibition of recombinant HDAC8 by fluorimetric assay.

The target in series [14] is Histone deacetylase 9 (Homo sapiens, UniProt Q9UKV0). The series can be described thus: Inhibition of recombinant HDAC9 by fluorimetric assay.
Chain of Histone deacetylase 9 (Q9UKV0 whole entry): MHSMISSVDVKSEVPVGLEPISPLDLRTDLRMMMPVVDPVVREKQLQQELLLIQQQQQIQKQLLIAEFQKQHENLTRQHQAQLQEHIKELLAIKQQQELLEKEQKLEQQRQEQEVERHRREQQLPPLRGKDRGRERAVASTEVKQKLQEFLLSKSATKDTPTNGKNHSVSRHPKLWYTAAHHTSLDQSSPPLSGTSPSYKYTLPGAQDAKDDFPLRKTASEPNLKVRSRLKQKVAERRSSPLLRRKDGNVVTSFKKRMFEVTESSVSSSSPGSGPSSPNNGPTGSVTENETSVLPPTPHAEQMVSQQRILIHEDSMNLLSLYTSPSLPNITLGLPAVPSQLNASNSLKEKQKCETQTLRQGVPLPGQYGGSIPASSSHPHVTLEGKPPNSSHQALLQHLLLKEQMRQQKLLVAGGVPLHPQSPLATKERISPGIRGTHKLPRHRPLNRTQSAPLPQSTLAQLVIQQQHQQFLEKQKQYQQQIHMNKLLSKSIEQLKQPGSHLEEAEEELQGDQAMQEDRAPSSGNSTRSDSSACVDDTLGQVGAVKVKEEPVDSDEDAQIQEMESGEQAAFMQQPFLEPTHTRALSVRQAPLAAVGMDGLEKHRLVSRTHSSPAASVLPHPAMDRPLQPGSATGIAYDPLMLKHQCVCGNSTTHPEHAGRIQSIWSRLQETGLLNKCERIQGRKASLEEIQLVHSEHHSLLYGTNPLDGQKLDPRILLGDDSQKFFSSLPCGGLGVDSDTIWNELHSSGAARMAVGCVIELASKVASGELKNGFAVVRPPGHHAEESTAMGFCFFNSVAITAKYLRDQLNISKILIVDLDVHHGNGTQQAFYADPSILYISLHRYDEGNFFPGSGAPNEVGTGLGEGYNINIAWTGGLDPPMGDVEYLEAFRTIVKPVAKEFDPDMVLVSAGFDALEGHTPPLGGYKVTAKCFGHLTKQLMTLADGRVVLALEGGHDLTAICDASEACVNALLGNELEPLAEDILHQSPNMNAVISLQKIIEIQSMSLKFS
Series [15] addresses T3, Histone deacetylase 11 (Homo sapiens, UniProt Q96DB2).
T3 sequence (Q96DB2 whole entry): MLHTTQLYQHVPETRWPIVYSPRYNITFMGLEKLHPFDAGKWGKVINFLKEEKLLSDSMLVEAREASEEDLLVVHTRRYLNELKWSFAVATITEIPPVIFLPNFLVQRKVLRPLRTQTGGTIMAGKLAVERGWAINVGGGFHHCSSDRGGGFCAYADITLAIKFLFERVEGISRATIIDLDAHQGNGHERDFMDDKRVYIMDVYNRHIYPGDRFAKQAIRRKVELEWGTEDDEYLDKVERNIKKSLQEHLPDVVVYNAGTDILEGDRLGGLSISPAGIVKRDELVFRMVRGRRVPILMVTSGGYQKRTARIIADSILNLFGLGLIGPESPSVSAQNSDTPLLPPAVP
The series can be described thus: Inhibition of recombinant HDAC11 by fluorimetric assay.

Series [16] deals with COLO 205. Kind of series: Antiproliferative activity against human COLO205 cells after 96 hrs by celltiter assay. As to conditions: COLO 205, 96 h. The format is functional, cell-based.
Series [17] deals with HCT-116. Kind of series: Antitumor activity against human HCT116 cells xenografted in athymic mouse assessed as tumor growth inhibition at 130 mg/kg, ip qd for 21 days measured on day 22. The format is functional. To be noted: HCT-116, ip, route intraperitoneal, read-out: TGI.
Series [18] concerns Mus musculus. Kind of series: Toxicity in athymic mouse xenografted with human HCT116 cells assessed as maximum body weight loss at 130 mg/kg, ip qd for 21 measured on day 19. Format: organism-based, HCT-116. Details: dose 130 mg/kg, route intraperitoneal. To be noted: in vivo.
Series [19] is described as follows: Toxicity in ip dosed athymic mouse assessed as maximum tolerated dose. The format is organism-based. To be noted: in vivo.
Series [20] concerns HCT-116. Kind of series: Antitumor activity against human HCT116 cells xenografted in athymic mouse assessed as tumor growth inhibition at 70 mg/kg, ip qd for 21 days measured on day 22. Format: functional. As to conditions: HCT-116, ip, route intraperitoneal, read-out: TGI.
For series [21], the system named is Mus musculus. Kind of series: Toxicity in athymic mouse xenografted with human HCT116 cells assessed as maximum body weight loss at 70 mg/kg, ip qd for 21 days measured on day 15. As to conditions: in vivo, 504 h. The arrangement: dose 70 mg/kg, route intraperitoneal. The format is organism-based, HCT-116.

By solubility is commonly meant how much of the substance goes into solution per volume. For orientation: logD means lipophilicity at a set pH, counting ionised and neutral species. By bioavailability is commonly meant the share of a dose that reaches the circulation, judged against a reference dose that is usually intravenous. A lower bioavailability goes with poor availability. A word on the Cmax: it is the highest concentration seen after dosing. Usually Ki stands for a dissociation constant, usually derived from enzyme kinetics or from competition with a known ligand. A word on the IC50: it is the concentration that gives 50% inhibition. As usually defined, the MTD is the largest dose that counted as tolerated.

The structures appear in SMILES notation.

Chain of Histone deacetylase 4 (P56524 whole entry): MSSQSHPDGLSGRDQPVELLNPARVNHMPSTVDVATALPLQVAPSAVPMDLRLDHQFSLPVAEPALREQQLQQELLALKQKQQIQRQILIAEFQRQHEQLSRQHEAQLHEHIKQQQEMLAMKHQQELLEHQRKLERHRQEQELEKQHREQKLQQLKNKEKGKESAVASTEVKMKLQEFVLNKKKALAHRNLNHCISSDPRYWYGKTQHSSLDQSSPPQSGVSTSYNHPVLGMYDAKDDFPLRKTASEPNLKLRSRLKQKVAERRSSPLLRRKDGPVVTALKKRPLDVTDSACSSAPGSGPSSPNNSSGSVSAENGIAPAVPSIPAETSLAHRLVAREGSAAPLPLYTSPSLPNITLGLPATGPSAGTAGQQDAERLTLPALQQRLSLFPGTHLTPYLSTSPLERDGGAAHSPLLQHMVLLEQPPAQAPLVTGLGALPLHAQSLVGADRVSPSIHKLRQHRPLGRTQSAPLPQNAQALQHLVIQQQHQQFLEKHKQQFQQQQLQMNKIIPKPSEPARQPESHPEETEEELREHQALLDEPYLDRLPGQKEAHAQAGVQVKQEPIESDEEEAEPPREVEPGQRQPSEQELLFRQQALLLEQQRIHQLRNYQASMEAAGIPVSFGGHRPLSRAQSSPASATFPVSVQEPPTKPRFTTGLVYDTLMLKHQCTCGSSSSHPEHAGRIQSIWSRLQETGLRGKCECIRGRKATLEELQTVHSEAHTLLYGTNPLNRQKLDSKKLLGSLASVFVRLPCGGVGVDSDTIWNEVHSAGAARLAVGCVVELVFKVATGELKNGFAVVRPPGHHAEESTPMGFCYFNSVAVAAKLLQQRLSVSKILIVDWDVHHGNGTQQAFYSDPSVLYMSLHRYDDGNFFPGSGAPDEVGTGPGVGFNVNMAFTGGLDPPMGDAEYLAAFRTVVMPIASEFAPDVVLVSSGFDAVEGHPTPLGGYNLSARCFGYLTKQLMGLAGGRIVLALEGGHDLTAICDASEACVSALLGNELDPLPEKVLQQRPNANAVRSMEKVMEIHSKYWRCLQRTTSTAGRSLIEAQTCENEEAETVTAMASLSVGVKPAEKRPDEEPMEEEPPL

For the compound `Cl.O=C(/C=C/c1ccc2c(c1)nc(CCc1ccccc1)n2CCN1CCCC1)NO`, the concentration in solution in series [1] (solubility) came to 1600 µg/mL. This compound also returned a logD in series [2] of 2.1.
`O=C(/C=C/c1ccc2c(c1)nc(CCc1ccccc1)n2CCN1CCCC1)NO`: the inhibition in vivo at 200 mg/kg in series [3] stood at 78%. Besides, the Activity in series [4] is on record as 5.7%; in series [6] it was “Non-toxic”; in [18], 8.7%; in series [21] it was 0.5%. The inhibition in vivo at 100 mg/kg in [5] stood at 43%. This compound displayed a bioavailability in series [7] of 13%. The concentration in series [8] peaked (Cmax) at 920 nM. Besides, the Ki in series [9] came out at 12.5 nM; in series [10], 9.6 nM; in [11], 17.2 nM; in series [12], 20.6 nM; in [13], 82 nM; in series [14], 19.2 nM. The Ki in [15] amounted to 12.8 nM. In addition, the half-inhibitory concentration (IC50) in [16] was 140 nM. Besides, in series [17], the inhibition in vivo at 130 mg/kg was determined as 89%. The MTD in series [19] amounted to 130 mg/kg. Also, the inhibition in vivo at 70 mg/kg in [20] came out at 59%.

(Values after ChEMBL document CHEMBL1152878, “N-Hydroxy-1,2-disubstituted-1H-benzimidazol-5-yl acrylamides as novel histone deacetylase inhibitors: design, synthesis, SAR studies, and in vivo antitumor activity” (Bioorg Med Chem Lett, 2009).)
